Assays:
[1] = biological target: T1, AXL (Homo sapiens, UniProt P30530); assay: TR-FRET kinase activity assay, AXL; assay type: biochemical; conditions: ATP at Km, 60 minutes
T1 sequence (P30530 26-894): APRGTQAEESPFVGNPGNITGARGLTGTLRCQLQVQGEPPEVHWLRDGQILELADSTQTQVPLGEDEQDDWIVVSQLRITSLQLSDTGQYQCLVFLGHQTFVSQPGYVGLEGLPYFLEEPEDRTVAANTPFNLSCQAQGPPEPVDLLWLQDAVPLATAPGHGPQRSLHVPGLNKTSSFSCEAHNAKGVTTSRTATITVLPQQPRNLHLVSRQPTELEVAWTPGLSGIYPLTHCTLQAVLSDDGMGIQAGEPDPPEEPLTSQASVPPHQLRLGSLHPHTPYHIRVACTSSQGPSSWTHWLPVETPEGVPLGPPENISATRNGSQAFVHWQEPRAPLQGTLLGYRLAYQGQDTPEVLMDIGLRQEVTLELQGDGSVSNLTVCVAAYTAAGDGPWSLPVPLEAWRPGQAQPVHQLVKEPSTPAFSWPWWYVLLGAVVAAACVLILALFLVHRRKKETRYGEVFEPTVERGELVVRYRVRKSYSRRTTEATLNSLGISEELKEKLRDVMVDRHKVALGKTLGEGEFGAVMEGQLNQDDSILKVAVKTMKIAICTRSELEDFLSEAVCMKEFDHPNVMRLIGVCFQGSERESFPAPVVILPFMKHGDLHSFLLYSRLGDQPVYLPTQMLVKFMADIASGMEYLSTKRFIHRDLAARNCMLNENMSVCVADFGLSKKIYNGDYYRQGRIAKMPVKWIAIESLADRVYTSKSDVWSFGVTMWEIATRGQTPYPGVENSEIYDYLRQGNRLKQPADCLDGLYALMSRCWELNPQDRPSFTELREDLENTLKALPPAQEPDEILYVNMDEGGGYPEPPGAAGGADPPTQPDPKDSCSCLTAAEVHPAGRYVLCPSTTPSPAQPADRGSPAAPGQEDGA
Procedure: (§1) IC50 values for compound inhibition of AXL, FLT3, MERTK and TYRO3 activity were determined by using a TR-FRET activity assay. A polypeptide substrate with a fluorescent label is phosphorylated on a tyrosine by each enzyme, where the now phosphorylated product is bound by a Europium-labeled antibody specific to that phosphorylation site. The proximity between the antibody and the substrate gives a signal known as TR-FRET. As the enzyme is inhibited by compound, less phosphorylated peptide product is made causing a decrease in overall signal.
(§2) Activity assays were performed in a 384-well, small volume, black microplates in an active enzyme volume of 10 μL and final developed volume of 20 μL. Final assay conditions are 50 mM HEPES pH 7.5, 10 mM MgCl2, 1 mM EGTA, 0.01% Brij 35 and 1 mM DTT all at RT. Enzyme, substrate labeled peptide and compound are mixed, and then the reaction is initiated with the addition of ATP at Km concentration for each enzyme. The reaction is allowed to run 60 minutes and then quenched with a 12.5 mM EDTA (ethylenediamine tetraacetic acid) solution. The plate is then developed with the addition of Europium labeled antibody for a final volume of 20 μL and is then incubated for 30 minutes in darkness. Plates are read in a Pherastar plate reader. Data is analyzed in GraphPad PRISM.
(§3) The results of these assays are shown in Table 1, below, wherein “No.” designates compound number (FIG. 1); “A” represents a value of ≤100 nM; “B” a value of >100 nM and ≤1 μM; “C” a value of >1 μM and ≤10 μM; “D” a value of >10 μM; “ND” is not determined. The ratio of Mer to FLT3 is calculated as follows: FLT3 IC50/Mer IC50. “+” represents a ratio of >2.0 and <10; “++” represents a ratio of between 10 and 100; and “+++” represents a ratio of >100.

[2] = biological target: T2, MERTK (Homo sapiens, UniProt Q12866); assay: TR-FRET kinase activity assay, MERTK; assay type: biochemical; conditions: for IC50: TR-FRET activity assay, ATP at Km, 60 minutes, read-out: Mer IC50; for FLT3/Mer ratio (FLT3 IC50/Mer IC50): ratio of Mer to FLT3: FLT3 IC50/Mer IC50
T2 sequence (Q12866 21-999): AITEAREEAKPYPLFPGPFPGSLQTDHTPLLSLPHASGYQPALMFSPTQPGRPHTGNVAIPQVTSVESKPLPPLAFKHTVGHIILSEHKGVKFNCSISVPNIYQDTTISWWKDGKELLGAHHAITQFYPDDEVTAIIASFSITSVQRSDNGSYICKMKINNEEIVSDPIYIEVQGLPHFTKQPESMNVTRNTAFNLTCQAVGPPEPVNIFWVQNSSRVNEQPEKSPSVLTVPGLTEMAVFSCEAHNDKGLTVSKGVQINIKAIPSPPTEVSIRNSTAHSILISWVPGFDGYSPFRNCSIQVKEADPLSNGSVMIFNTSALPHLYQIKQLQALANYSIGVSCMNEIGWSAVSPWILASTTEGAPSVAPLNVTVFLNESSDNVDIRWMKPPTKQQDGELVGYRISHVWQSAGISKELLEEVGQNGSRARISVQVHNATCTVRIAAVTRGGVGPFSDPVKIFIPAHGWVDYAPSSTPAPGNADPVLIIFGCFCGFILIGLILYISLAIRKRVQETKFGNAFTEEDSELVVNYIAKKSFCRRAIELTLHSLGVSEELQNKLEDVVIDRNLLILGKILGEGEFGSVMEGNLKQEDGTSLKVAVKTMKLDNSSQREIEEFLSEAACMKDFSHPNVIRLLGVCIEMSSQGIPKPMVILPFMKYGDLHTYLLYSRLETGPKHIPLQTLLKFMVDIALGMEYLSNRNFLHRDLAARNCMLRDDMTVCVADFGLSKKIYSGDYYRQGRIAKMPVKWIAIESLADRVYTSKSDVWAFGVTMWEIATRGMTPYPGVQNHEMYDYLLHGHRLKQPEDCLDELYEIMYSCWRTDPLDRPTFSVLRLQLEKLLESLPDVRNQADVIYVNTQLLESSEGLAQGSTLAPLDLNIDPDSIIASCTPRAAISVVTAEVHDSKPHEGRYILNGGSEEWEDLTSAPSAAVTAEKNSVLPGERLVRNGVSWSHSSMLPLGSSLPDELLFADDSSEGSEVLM
Procedure: as §1, §2, §3

| SMILES | IC50 [1] | IC50 [2] | FLT3/Mer ratio (FLT3 IC50/Mer IC50) [2] |
| --- | --- | --- | --- |
| Cc1cc(-c2cc([C@H]3CC[C@H](O)CC3)n3nc(N[C@@H](C)CC(F)(F)F)ncc23)ccn1 [Compound 213] | ≤ 100 nM | ≤ 100 nM | +++ (“+++” represents a ratio of >100) |
| CC(C)OC[C@H](C)Nc1ncc2c(-c3ccc(CN4CCOCC4)cc3)cc([C@H]3CC[C@H](O)CC3)n2n1 [Compound 214] | 100 to 1000 nM | ≤ 100 nM | +++ (“+++” represents a ratio of >100) |
| Cc1cc(-c2cc([C@H]3CC[C@H](O)CC3)n3nc(N[C@@H](C)COC(C)C)ncc23)ccn1 [Compound 215] | 100 to 1000 nM | ≤ 100 nM | +++ (“+++” represents a ratio of >100) |
| C[C@@H](CC1CC1)Nc1ncc2c(-c3ccc(CN4CCN(C)CC4)cc3)cc([C@H]3CC[C@H](O)CC3)n2n1 [Compound 216] | ≤ 100 nM | ≤ 100 nM | ++ (“++” represents a ratio of between 10 and 100) |
| COC[C@H](C)Nc1ncc2c(-c3cccc(CN4CCOCC4)c3)cc([C@H]3CC[C@H](O)CC3)n2n1 [Compound 217] | 100 to 1000 nM | ≤ 100 nM | +++ (“+++” represents a ratio of >100) |
| COC[C@H](C)Nc1ncc2c(-c3cnn(Cc4cccnc4)c3)cc([C@H]3CC[C@H](O)CC3)n2n1 [Compound 220] | ≤ 100 nM | ≤ 100 nM | +++ (“+++” represents a ratio of >100) |
| COCC(C)Nc1ncc2c(-c3cnn(C4COC4)c3)cc(C3CCC(O)CC3)n2n1 (stereo not drawn) [Compound 221] | ≤ 100 nM | ≤ 100 nM | +++ (“+++” represents a ratio of >100) |
| COC[C@H](C)Nc1ncc2c(-c3cnn(CCC#N)c3)cc([C@H]3CC[C@H](O)CC3)n2n1 [Compound 222] | ≤ 100 nM | ≤ 100 nM | +++ (“+++” represents a ratio of >100) |
| COC[C@H](C)Nc1ncc2c(-c3cccc(CN4CCC(F)(F)C4)c3)cc([C@H]3CC[C@H](O)CC3)n2n1 [Compound 223] | 100 to 1000 nM | ≤ 100 nM | +++ (“+++” represents a ratio of >100) |
| COC[C@H](C)Nc1ncc2c(-c3cccc(CN4CC[C@@H](F)C4)c3)cc([C@H]3CC[C@H](O)CC3)n2n1 [Compound 224] | 100 to 1000 nM | ≤ 100 nM | +++ (“+++” represents a ratio of >100) |
| COCC(C)Nc1ncc2c(-c3cccc(CN4CCC(F)C4)c3)cc(C3CCC(O)CC3)n2n1 (stereo not drawn) [Compound 225] | ≤ 100 nM | ≤ 100 nM | +++ (“+++” represents a ratio of >100) |
| COC[C@H](C)Nc1ncc2c(-c3cnn(CC(=O)NC(C)C)c3)cc([C@H]3CC[C@H](O)CC3)n2n1 [Compound 235] | 100 to 1000 nM | ≤ 100 nM | +++ (“+++” represents a ratio of >100) |
| COC[C@H](C)Nc1ncc2c(-c3cnn(CC(=O)N[C@H]4CCOC4)c3)cc([C@H]3CC[C@H](O)CC3)n2n1 [Compound 237] | 100 to 1000 nM | ≤ 100 nM | +++ (“+++” represents a ratio of >100) |

Now from value to compound:

| IC50 [1] | IC50 [2] | FLT3/Mer ratio (FLT3 IC50/Mer IC50) [2] | SMILES |
| --- | --- | --- | --- |
| 100 to 1000 nM | ≤ 100 nM | +++ (“+++” represents a ratio of >100) | COC[C@H](C)Nc1ncc2c(-c3cccc(CN4CCN(C)CC4)c3)cc([C@H]3CC[C@H](O)CC3)n2n1 [Compound 218] |
| 100 to 1000 nM | ≤ 100 nM | +++ (“+++” represents a ratio of >100) | COC[C@H](C)Nc1ncc2c(-c3cncc(CN4CCOCC4)c3)cc([C@H]3CC[C@H](O)CC3)n2n1 [Compound 219] |
| 100 to 1000 nM | ≤ 100 nM | +++ (“+++” represents a ratio of >100) | COC[C@H](C)Nc1ncc2c(-c3ccc(C(=O)N4CCN(C)CC4)nc3)cc([C@H]3CC[C@H](O)CC3)n2n1 [Compound 226] |
| 100 to 1000 nM | ≤ 100 nM | +++ (“+++” represents a ratio of >100) | COC[C@H](C)Nc1ncc2c(-c3ccc(C(=O)N4CCOCC4)nc3)cc([C@H]3CC[C@H](O)CC3)n2n1 [Compound 227] |
| 100 to 1000 nM | ≤ 100 nM | +++ (“+++” represents a ratio of >100) | COC[C@H](C)Nc1ncc2c(-c3ccc(C(=O)NC(C)C)nc3)cc([C@H]3CC[C@H](O)CC3)n2n1 [Compound 228, 5-(7-((1r,4S)-4-hydroxycyclohexyl)-2-(((S)-1-methoxypropan-2-yl)amino)pyrrolo[2,1-f][1,2,4]triazin-5-yl)-N-isopropylpicolinamide] |
| 100 to 1000 nM | ≤ 100 nM | +++ (“+++” represents a ratio of >100) | COC[C@H](C)Nc1ncc2c(-c3ccc(CN4CCOCC4)nc3)cc([C@H]3CC[C@H](O)CC3)n2n1 [Compound 230] |
| 100 to 1000 nM | ≤ 100 nM | +++ (“+++” represents a ratio of >100) | COC[C@H](C)Nc1ncc2c(-c3cncc(C)c3)cc([C@H]3CC[C@H](O)CC3)n2n1 [Compound 231] |
| 100 to 1000 nM | ≤ 100 nM | +++ (“+++” represents a ratio of >100) | COC[C@H](C)Nc1ncc2c(-c3cncc(C(=O)N4CCCC4)c3)cc([C@H]3CC[C@H](O)CC3)n2n1 [Compound 232] |
| 100 to 1000 nM | ≤ 100 nM | +++ (“+++” represents a ratio of >100) | COC[C@H](C)Nc1ncc2c(-c3cncc(C(=O)N4CCOCC4)c3)cc([C@H]3CC[C@H](O)CC3)n2n1 [Compound 233] |
| 100 to 1000 nM | ≤ 100 nM | +++ (“+++” represents a ratio of >100) | COC[C@H](C)Nc1ncc2c(-c3cncc(C(=O)N4CCN(C)CC4)c3)cc([C@H]3CC[C@H](O)CC3)n2n1 [Compound 234] |

— patent US11040981B2, “Pyrrolotriazine compounds and methods of inhibiting TAM kinases” (Syros Pharmaceuticals, Inc., priority 2017, dated 2021)
